A short description of data set [1]: Pharmacokinetic study of SK14-061a after oral and intravenous administration in rats. The data set is classed as in vivo. The note with it: 1 mg/kg. How it is done: Rats were fasted for 12 h but with free access to water before dosing. Rats were orally (p.o.) administered a SK14-061a solution at a dose of 1 mg/kg. At stipulated times after the administration (15 min, 45 min, 90 min, 3, 4.5, 6 and 9 hr), venous blood samples were collected from tail vein using a heparinized syringe (0.25ml). The blood samples were centrifuged (3,000 rpm, 10 min) to obtain plasma. Urine samples were collected in a metabolic cage for 9 hr after the administration of the SK14-061a solution. After obtaining the last blood sample, all rats were sacrificed and kidneys and liver collected. To determine the time-dependent tissue distribution of SK14-061a, rats were sacrificed and organs (kidneys and liver) were collected at 1 and 3 hr after the oral administration of SK14-061a at a dose of 1 mg/kg. To calculate bioavailability, plasma concentrations of SK14-061a after intravenous administration (1 mg/kg) were also obtained at 3 min, 15 min, 30 min, 1, 3, 6 and 9 hr. Before the LC-MS analysis, plasma samples that were collected for pharmacokinetic studies were treated in the same manner as described in the "Validation assays" section. A portion of the liver and kidney tissues (about 500 mg) were homogenized in water (1 mL). The homogenized samples were subsequently ultracentrifuged at 100,000 g for 1 hr, and the supernatant collected. Urine samples were centrifuged (3,000 rpm, 10 min) and the supernatants were used in the analyses. All samples derived from organs and urine were processed using a Waters Oasis MCX 96 well plate in the same manner as was used for the plasma samples before the LC-MS analysis. All data are expressed as the mean ± S.D. Statistical analyses for multiple comparisons were determined by an analysis of variance (two-way ANOVA) using the Bonferroni correction for multiple comparisons. A probability value of p < 0.05 was considered to be significant. A non-compartment model was used for the pharmacokinetic analysis. Parameters were calculated using the program of a moment analysis developed by Tabata et al. Half-life (t1/2) were calculated from the elimination phase. Area under the concentration-time curve (AUC) were calculated using the following equations: AUC=∫0∞Cdt

Data set [2] in a line: Clinical chemistry (liver and kidney toxicity) after oral SK14-061a. It counts as in vivo, Sprague-Dawley rats. The note with it: p.o., 1 mg/kg, 9 hr after administration. The procedure:
Sprague-Dawley rats (male, 230–270 g) were purchased from the Kyudo Co., Ltd. (Saga, Japan). All animals were maintained under conventional housing conditions, with food and water ad libitum in a temperature-controlled room with a 12 hr dark/light cycle. Maintenance of the animals and the experimental procedures performed on them were carried out in accordance with NIH guidelines. All animal experiments were reviewed and approved by the Animal Care and Use committee of Sojo University (Permit #: 2015-P-020). Eight rats were divided into two group: non-treatment group as a control (n = 4) and SK14-061a-treated group (p.o., 1 mg/kg, n = 4). […] The blood samples were centrifuged (3,000 g, 5 min) to obtain plasma for analysis of aspartate aminotransferase (AST), alanine aminotransferase (ALT), urea nitrogen (BUN) and creatinine. All plasma samples were stored at -80 °C prior to analysis by a commercial clinical testing laboratory (Oriental Yeast Co., Tokyo, Japan).

Each structure is given as a SMILES string. Where two headings read alike, the source gives them in different places.

As a reminder, the half-life is the time in which the quantity being followed falls by half. The low end stands for fast loss, the high end for slow loss. A word on the AUC: it is the area under the concentration-time curve, a measure of exposure. In general, Cmax refers to the maximum level reached in the sampled fluid or tissue. By MRT is commonly meant the average time that molecules of a dose stay in the body. For orientation: bioavailability means the share of a dose that reaches the circulation, judged against a reference dose that is usually intravenous. As usually defined, the CL/F is the apparent clearance, not corrected for the fraction that reaches the circulation. What is called Tmax is the time from dosing to the highest level. In data set [1] (rat, plasma, iv, rats), `N#C[C@]1(CO)O[C@@H](n2cnc3c(O)ncnc32)C[C@@H]1O` [SK14-061a, 4′-cyano-2′-deoxyinosine] showed a half-life of 3.01 ± 1.48 h, a Cmax of 431 ± 36.3 ng/mL, an MRT of 3.58 ± 1.86 h and a clearance of 34.7 mL/min/kg. For the same molecule, the exposure (AUC) in data set [1] (rat, plasma, iv, rats, i.v., read-out: AUC) came out at 475 ± 82.2 ng·h/mL. In data set [1] (rat, plasma, oral, rats, p.o. vs i.v., read-out: F (bioavailability)), the bioavailability is about 65%. In data set [1] (rat, plasma, po), this molecule showed an apparent clearance CL/F of 55.3 mL/min/kg, a maximum concentration (Cmax) of 48.8 ± 11.8 ng/mL and an MRT of 5.47 ± 1.52 h. In data set [1] (rat, plasma, po, rats, alone (ETV (-))), this molecule gave a half-life of about 3.6 h. Also, the AUC in data set [1] (rat, plasma, po, rats, p.o., alone (ETV (-)), read-out: AUC) came to 308 ± 49.7 ng·h/mL. Moreover, the time of peak concentration (Tmax) in data set [1] (rat, plasma, po, rats, p.o., alone (ETV (-)), read-out: tmax) came to 1.3 h. For the same molecule, in data set [1] (rats, p.o. vs i.v.), the “MAT (mean absorption time)” value is 1.89 h. In data set [1] (rats, p.o., alone (ETV (-))), the AUC was determined as 308 ± 49.7 ng·h/mL and the Tmax is 1.29 ± 0.34 h. In addition, in data set [2], the “change of alanine aminotransferase (ALT) vs control rats” value is given as “no significant changes”, the “change of aspartate aminotransferase (AST) vs control rats” value was “no significant changes”, the “change of blood urea nitrogen (BUN) vs control rats” value is recorded as “no significant changes” and the “change of creatinine vs control rats” value is on record as “no significant changes”.
